Tests used:
[1] = tested on: ssGPR55-K80A and ssGPR55-Q87A; assay: LPI-induced MAPK activation in shGPR55-HeLa clones expressing ssGPR55 mutants; assay type: cell-based, human; conditions: 10 µM 18:0 LPI
Excerpt: The construct of haemagglutinin (HA)-tagged human GPR55 in pcDNA3 (HA-GPR55) was a gift from Prof. K. Mackie, Indiana University, Bloomington, IN, USA [39], while the construct ss-3 × HA-GPR55 in pcDNA3.1 (ssGPR55) with a triple HA tag at the N-terminus and an optimised signal sequence (ss, derived from amino acids 1–33 of the human growth hormone: […]) for efficient surface expression was from Prof. A. Irving, Dundee University, UK [40]. For both constructs, mutations were introduced by site-directed mutagenesis using QuickChange kits (Stratagene, La Jolla, CA, USA), according to the manufacturer instructions. The primers for the K80A mutation were 5′-[…]-3′ and 5′-[…]-3′ (Tm, 70.6 °C), and for Q87A were 5′-[…]-3′ and 5′-[…]-3′ (Tm, 73.1 °C).
HeLa cells were plated at 1.5 × 10^5 cells/well in six-well plates in their growth medium without antibiotics. Twenty-four hours later, the cells were transfected with 2.5 µg/well pcDNA3.1, or the mutants ssGPR55-K80A, ssGPR55-Q87A, or 1.25 µg/well (complemented with 1.25 µg/well empty vector) ssGPR55, using Lipofectamine 2000, according to the manufacturer instructions. The different cDNA amounts were necessary to reach equivalent plasma-membrane expression of the receptors, as the mutants were expressed at lower levels, as verified by FACS analyses, and in line with previous reports.
For stable interference of GPR55, HeLa cells were plated at 1.5 × 10^5 cells/well in six-well plates in growth medium without antibiotics, and 24 h later, the cells were transfected with 1.7 µg/well OmicsLink short hairpin (sh)RNA expression clone CSHCTR001-CU6 (shCTRL) or clone HSH022476-3-CU6 (shGPR55) from GeneCopoeia (Rockville, MD, USA), using Lipofectamine 2000, according the manufacturer instructions. Forty-eight hours after transfection, HeLa clones stably expressing shRNAs were selected in growth medium containing 0.3 µg/mL puromycin. The efficiency of interference was monitored by real-time PCR using the primers listed in the Additional file 1: Table S1. HPRT1 was followed as a housekeeping gene. […]

[2] = tested on: endogenous GPR55 in RAW264.7 cells; assay: Intracellular Ca2+ assay in siRNA-interfered RAW264.7 cells; assay type: cell-based, murine; conditions: si-NT cells, 72 h of interference; 10 µM 16:0 LPI, within the first minute
Procedure: For transient interference of Gpr55, RAW264.7 cells were plated at 6 × 10^5 cells/well in six-well plates in growth medium without antibiotics. Twenty-four hours later, the cells were transfected with 250 pmol/well non-targeting small-interfering (si)RNAs (si-NT; siGENOME siRNA Pool #2; D-001206-14; Dharmacon, Chicago, IL, USA) or Gpr55-specific siRNAs (si-GPR55; siGENOME mouse GPR55 SMART pool; M-043590-01; Dharmacon) using Lipofectamine LTX and Plus Reagent, according to the manufacturer instructions. Twenty-four hours later, the cells were plated for the different assays or for RNA extraction. The efficiency of interference was monitored by real-time PCR after 72 h of interference, using the primers listed in the Additional file 1: Table S1. β2-microglobulin was followed as a housekeeping gene.
After 48 h of siRNA treatments, the RAW264.7 cells were detached with 600 μM EDTA in PBS, and plated at a density of 8 × 10^4 cells/well in 96-well plates. […] All the subsequent incubation steps were performed at 37 °C within the Fluoroskan Ascent FL (Thermo Fisher Scientific, Waltham, MA USA) and the fluorescence recorded with an Ex 485/ Em 520 every 3 s. The baseline fluorescence was monitored for 5 min, then 50 μL assay buffer (0.01% faf-BSA, 20 mM HEPES in HBSS^++) was added without or with 10 μM 16:0 LPI, and fluorescence was recorded for a further 5 min. […]

lysophosphatidylinositol [LPI]
LPI-stimulated activation of p38 [1]: no LPI-stimulated activation of p38 | LPI-stimulated activation of ERK2, 5 min ([1]; 5 min): no response at 5 min | LPI-stimulated activation of ERK2, 10 min ([1]; 10 min): reduced response at 10 min | mean increase of intracellular Ca2+ over basal levels [2]: ~ 40 nM

— article PMC8073907, “Peptide targeting of lysophosphatidylinositol-sensing GPR55 for osteoclastogenesis tuning” (Cell Communication and Signaling : CCS, 2021)
